Source: PMC3108469 (Journal of Medicinal Chemistry, 2011)

Conditions: Sprague–Dawley rats

Row | Vz | exposure | oral bioavailability (%F) | SMILES
1 | exceptionally large | extremely poor exposure |  | CN(C)[C@@H]1C(O)=C(C(N)=O)C(=O)[C@@]2(O)C(O)=C3C(=O)c4c(c(F)c5ccc(CN6CCC6)cc5c4O)C[C@H]3C[C@@H]12 [19c-5, (4S,4aS,5aR,14aS)-10-(Azetidin-1-ylmethyl)-4-(dimethylamino)-7-fluoro-3,12,14,14a-tetrahydroxy-1,13-dioxo-1,4,4a,5,5a,6,13,14a-octahydropentacene-2-carboxamide]
2 |  |  | almost no oral bioavailability | CN(C)c1cc(NC(=O)CNC(C)(C)C)c(O)c2c1C[C@H]1C[C@H]3[C@H](N(C)C)C(O)=C(C(N)=O)C(=O)[C@@]3(O)C(O)=C1C2=O [tigecycline, reference compound]
